The values that follow come from patent US8883788B2, “Fused heterocyclic ring compound” (Takeda Pharmaceutical Company Limited, priority 2010, dated 2014).

T1 sequence (Q9Y233 267-1055): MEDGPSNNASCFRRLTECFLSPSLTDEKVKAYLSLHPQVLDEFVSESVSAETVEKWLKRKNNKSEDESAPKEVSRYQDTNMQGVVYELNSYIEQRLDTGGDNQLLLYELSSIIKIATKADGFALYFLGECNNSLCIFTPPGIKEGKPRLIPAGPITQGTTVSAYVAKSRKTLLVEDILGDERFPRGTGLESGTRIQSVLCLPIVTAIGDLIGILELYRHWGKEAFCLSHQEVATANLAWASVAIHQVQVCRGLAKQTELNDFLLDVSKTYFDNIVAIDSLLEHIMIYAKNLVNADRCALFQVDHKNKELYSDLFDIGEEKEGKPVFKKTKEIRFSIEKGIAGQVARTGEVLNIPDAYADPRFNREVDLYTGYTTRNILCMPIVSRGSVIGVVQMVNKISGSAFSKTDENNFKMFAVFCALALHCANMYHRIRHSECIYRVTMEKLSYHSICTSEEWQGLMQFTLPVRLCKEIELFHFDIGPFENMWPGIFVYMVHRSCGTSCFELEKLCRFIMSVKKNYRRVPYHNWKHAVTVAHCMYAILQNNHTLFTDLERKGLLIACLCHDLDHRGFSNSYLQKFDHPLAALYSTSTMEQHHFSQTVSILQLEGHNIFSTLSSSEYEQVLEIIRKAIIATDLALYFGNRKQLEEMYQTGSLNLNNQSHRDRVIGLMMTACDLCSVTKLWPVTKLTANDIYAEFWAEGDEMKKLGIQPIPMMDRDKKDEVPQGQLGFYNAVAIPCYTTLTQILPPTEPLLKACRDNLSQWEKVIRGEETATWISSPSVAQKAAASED

The assay concerns the target T1, human PDE10A enzyme (Homo sapiens, UniProt Q9Y233).
T1 construct: Human PDE10A full-length gene was transfected into Sf9 or COS-7 cells; His-tag; made in house; host or cells: Sf9 or COS-7 cells
The experiment in a line: PDE10A enzyme activity inhibition test (SPA). The assay is classed as biochemical. As to conditions: compound 1 μM, substrate [3H]cGMP, 60 min at room temperature, read-out: inhibition rate (%) (1 μM). On the procedure: Human PDE10A full-length gene was transfected into Sf9 or COS-7 cells. The cells were disrupted and centrifuged, and human PDE10A enzyme was obtained from the residue. The enzyme extracted from Sf9 cells was partially purified using His-tag affinity column. The enzyme was stored at −70° C. until use. The PDE activity was measured using an SPA (Scintillation Proximity Assay) (GE Healthcare). To measure the inhibitory activity of the compound, 10 μL of serially diluted compound was reacted with 20 μL of PDE enzyme in an assay buffer (50 mM HEPES-NaOH, 8.3 mM MgCl2, 1.7 mM EGTA, 0.1% BSA (pH 7.4)) […] at room temperature. The final concentration of DMSO in the reaction mixture was 1 percent. The compounds were evaluated in duplicate in 96-well half-area plates (Corning). To start the reaction, 10 μL of substrate [^3H] cGMP (25 and 50 nM; GE Healthcare and PerkinElmer, respectively) was added to 40 μL. After 60 min of reaction at room temperature, yttrium SPA beads containing zinc sulphate were added (6 mg/mL, 20 μL) to terminate the reaction. After standing still for 1 hr, the measurement was performed using a scintillation counter (PerkinElmer) and the inhibition rate was calculated. The inhibition rate was calculated based on the control containing enzyme and DMSO as 0% and the control without enzyme as 100%.
The term inhibition denotes the change of the read-out against control, counted positive when it falls. In the case of `Cn1cc(OCCCc2nc3ccccc3n2C)c(=O)c(-c2ccnn2-c2ccccc2)n1` [Example 1, 1-methyl-5-[3-(1-methyl-1H-benzimidazol-2-yl)propoxy]-3-(1-phenyl-1H-pyrazol-5-yl)pyridazin-4(1H)-one], the inhibition at 1 µM stood at 96%.

Regarding `Cn1cc(OCCN2CCn3c2nc2ccccc23)c(=O)c(-c2ccnn2-c2ccccc2)n1` [Example 2, 5-[2-(2,3-dihydro-1H-imidazo[1,2-a]benzimidazol-1-yl)ethoxy]-1-methyl-3-(1-phenyl-1H-pyrazol-5-yl)pyridazin-4(1H)-one], the inhibition at 1 µM is 101%.

For the compound `Cn1c(CCCOc2cn(CC3CC3)nc(-c3ccnn3-c3ccccc3)c2=O)nc2ccccc21` [Example 3, 1-(cyclopropylmethyl)-5-[3-(1-methyl-1H-benzimidazol-2-yl)propoxy]-3-(1-phenyl-1H-pyrazol-5-yl)pyridazin-4(1H)-one], the inhibition at 1 µM came out at 98%.

For the compound `O=c1c(OCCN2CCn3c2nc2ccccc23)cn(CC2CC2)nc1-c1ccnn1-c1ccccc1` [Example 4, 1-(cyclopropylmethyl)-5-[2-(2,3-dihydro-1H-imidazo[1,2-a]benzimidazol-1-yl)ethoxy]-3-(1-phenyl-1H-pyrazol-5-yl)pyridazin-4(1H)-one], the inhibition at 1 µM was 100%.

On to `Cn1nccc1-c1nn(-c2ccccc2)cc(OCCCc2nc3ccccc3n2C)c1=O` [Example 5, 5-[3-(1-methyl-1H-benzimidazol-2-yl)propoxy]-3-(1-methyl-1H-pyrazol-5-yl)-1-phenylpyridazin-4(1H)-one], for which the inhibition at 1 µM came out at 95.4%.

Take `Cn1nccc1-c1nn(-c2ccccc2)cc(OCCN2CCn3c2nc2ccccc23)c1=O` [Example 6, 5-[2-(2,3-dihydro-1H-imidazo[1,2-a]benzimidazol-1-yl)ethoxy]-3-(1-methyl-1H-pyrazol-5-yl)-1-phenylpyridazin-4(1H)-one]: the inhibition at 1 µM stood at 97.2%.

Turning to `Cn1nccc1-c1nn(-c2ccccc2)cc(OCCc2ccc3ccccc3n2)c1=O` [Example 7, 3-(1-methyl-1H-pyrazol-5-yl)-1-phenyl-5-(2-quinolin-2-ylethoxy)pyridazin-4(1H)-one], the inhibition at 1 µM amounted to 96.8%.

`Cn1nccc1-c1nn(-c2ccccc2)cc(OCc2ccc3ccccc3n2)c1=O` [Example 8, 3-(1-methyl-1H-pyrazol-5-yl)-1-phenyl-5-(quinolin-2-ylmethoxy)pyridazin-4(1H)-one]: the inhibition at 1 µM came to 68.4%.

For the compound `O=c1cnn(-c2cccc(C(F)(F)F)c2)cc1OCc1ccc2ccccc2n1` [Example 9, 5-(quinolin-2-ylmethoxy)-1-[3-(trifluoromethyl)phenyl]pyridazin-4(1H)-one], the inhibition at 1 µM was found to be 6.5%.

As for `Cn1cc(OCCOc2nc3ccccc3n2C)c(=O)c(-c2ccnn2-c2ccccc2)n1` [Example 10, 1-methyl-5-{2-[(1-methyl-1H-benzimidazol-2-yl)oxy]ethoxy}-3-(1-phenyl-1H-pyrazol-5-yl)pyridazin-4(1H)-one], the inhibition at 1 µM was determined as 95%.

With `Cn1cc(OCCCc2cn3ccccc3n2)c(=O)c(-c2ccnn2-c2ccccc2)n1` [Example 11, 5-(3-imidazo[1,2-a]pyridin-2-ylpropoxy)-1-methyl-3-(1-phenyl-1H-pyrazol-5-yl)pyridazin-4(1H)-one], the inhibition at 1 µM was determined as 100%.

For the compound `Cn1cc(OCCCc2nc3cccnc3n2C)c(=O)c(-c2ccnn2-c2ccccc2)n1` [Example 12, 1-methyl-5-[3-(3-methyl-3H-imidazo[4,5-b]pyridin-2-yl)propoxy]-3-(1-phenyl-1H-pyrazol-5-yl)pyridazin-4(1H)-one], the inhibition at 1 µM was determined as 102%.

For `Cn1c(CCCOc2cn(CC3CC3)nc(-c3ccnn3-c3ccccc3)c2=O)nc2cccnc21` [Example 13, 1-(cyclopropylmethyl)-5-[3-(3-methyl-3H-imidazo[4,5-b]pyridin-2-yl)propoxy]-3-(1-phenyl-1H-pyrazol-5-yl)pyridazin-4(1H)-one], the inhibition at 1 µM worked out at 100%.

As for `Cn1c(OCCOc2cn(CC3CC3)nc(-c3ccnn3-c3ccccc3)c2=O)nc2ccccc21` [Example 14, 1-(cyclopropylmethyl)-5-{2-[(1-methyl-1H-benzimidazol-2-yl)oxy]ethoxy}-3-(1-phenyl-1H-pyrazol-5-yl)pyridazin-4 (H)-one], the inhibition at 1 µM worked out at 98%.

With `O=c1c(OCCOc2ccc3ccccc3n2)cn(CC2CC2)nc1-c1ccnn1-c1ccccc1` [Example 15, 1-(cyclopropylmethyl)-3-(1-phenyl-1H-pyrazol-5-yl)-5-[2-(quinolin-2-yloxy)ethoxy]pyridazin-4(1H)-one], the inhibition at 1 µM stood at 13%.

With `O=c1c(OCCCc2cn3ccccc3n2)cn(CC2CC2)nc1-c1ccnn1-c1ccccc1` [Example 16, 1-(cyclopropylmethyl)-5-(3-imidazo[1,2-a]pyridin-2-ylpropoxy)-3-(1-phenyl-1H-pyrazol-5-yl)pyridazin-4(1H)-one], the inhibition at 1 µM worked out at 98%.

With `O=c1c(OCc2ccc3ccccc3n2)cn(CC2CC2)nc1-c1ccnn1-c1ccccc1` [Example 17, 1-(cyclopropylmethyl)-3-(1-phenyl-1H-pyrazol-5-yl)-5-(quinolin-2-ylmethoxy)pyridazin-4(1H)-one], the inhibition at 1 µM was found to be 60%.

Consider `O=c1c(OCc2ccc3cccnc3c2)cn(CC2CC2)nc1-c1ccnn1-c1ccccc1` [Example 18, 1-(cyclopropylmethyl)-3-(1-phenyl-1H-pyrazol-5-yl)-5-(quinolin-7-ylmethoxy)pyridazin-4(1H)-one], for which the inhibition at 1 µM came to 20%.

As to `O=c1c(OCCn2ccn3ccnc23)cn(CC2CC2)nc1-c1ccnn1-c1ccccc1` [Example 19, 1-(cyclopropylmethyl)-5-[2-(1H-imidazo[1,2-a]imidazol-1-yl)ethoxy]-3-(1-phenyl-1H-pyrazol-5-yl)pyridazin-4(1H)-one], the inhibition at 1 µM is 94%.

As to `Cn1c(CCCOc2cn(C3CCC3)nc(-c3ccnn3-c3ccccc3)c2=O)nc2ccccc21` [Example 20, 1-cyclobutyl-5-[3-(1-methyl-1H-benzimidazol-2-yl)propoxy]-3-(1-phenyl-1H-pyrazol-5-yl)pyridazin-4(1H)-one], the inhibition at 1 µM turned out to be 99%.

For the compound `Cn1c(CCCOc2cn(C3CCC3)nc(-c3ccnn3-c3ccccc3)c2=O)nc2cccnc21` [Example 21, 1-cyclobutyl-5-[3-(3-methyl-3H-imidazo[4,5-b]pyridin-2-yl)propoxy]-3-(1-phenyl-1H-pyrazol-5-yl)pyridazin-4 (H)-one], the inhibition at 1 µM was determined as 107%.

Take `O=c1c(OCCN2CCn3c2nc2ccccc23)cn(C2CCC2)nc1-c1ccnn1-c1ccccc1` [Example 22, 1-cyclobutyl-5-[2-(2,3-dihydro-1H-imidazo[1,2-a]benzimidazol-1-yl)ethoxy]-3-(1-phenyl-1H-pyrazol-5-yl)pyridazin-4 (H)-one]: the inhibition at 1 µM came out at 98%.

On to `Cn1c(OCCOc2cn(C3CCC3)nc(-c3ccnn3-c3ccccc3)c2=O)nc2ccccc21` [Example 23, 1-cyclobutyl-5-{2-[(1-methyl-1H-benzimidazol-2-yl)oxy]ethoxy}-3-(1-phenyl-1H-pyrazol-5-yl)pyridazin-4(1H)-one], for which the inhibition at 1 µM worked out at 100%.

Take `O=c1c(OCCCc2cn3ccccc3n2)cn(C2CCC2)nc1-c1ccnn1-c1ccccc1` [Example 24, 1-cyclobutyl-5-(3-imidazo[1,2-a]pyridin-2-ylpropoxy)-3-(1-phenyl-1H-pyrazol-5-yl)pyridazin-4(1H)-one]: the inhibition at 1 µM stood at 100%.

For the compound `Cn1c(CCCOc2cn(CC(F)(F)F)nc(-c3ccnn3-c3ccccc3)c2=O)nc2ccccc21` [Example 25, 5-[3-(1-methyl-1H-benzimidazol-2-yl)propoxy]-3-(1-phenyl-1H-pyrazol-5-yl)-1-(2,2,2-trifluoroethyl)pyridazin-4(1H)-one], the inhibition at 1 µM worked out at 96%.

Turning to `Cn1c(CCCOc2cn(CC(F)(F)F)nc(-c3ccnn3-c3ccccc3)c2=O)nc2cccnc21` [Example 26, 5-[3-(3-methyl-3H-imidazo[4,5-b]pyridin-2-yl)propoxy]-3-(1-phenyl-1H-pyrazol-5-yl)-1-(2,2,2-trifluoroethyl)pyridazin-4(1H)-one], the inhibition at 1 µM is 101%.

For the compound `O=c1c(OCCN2CCn3c2nc2ccccc23)cn(CC(F)(F)F)nc1-c1ccnn1-c1ccccc1` [Example 27, 5-[2-(2,3-dihydro-1H-imidazo[1,2-a]benzimidazol-1-yl)ethoxy]-3-(1-phenyl-1H-pyrazol-5-yl)-1-(2,2,2-trifluoroethyl)pyridazin-4(1H)-one], the inhibition at 1 µM is 98%.
